Several values for one entry are separate records, joined by “and”; a condition that tells them apart may be missing. Equal values may be shown once. Toxic doses and inconclusive results are not listed. Rule as the data show it: active = T/C of 150% or more; inactive = T/C below 125%.
System: L1210 leukemia ip in BDF1 mice, survival T/C
Experiment: NCI In Vivo Anticancer Drug Screen. Data for tumor model L1210 Leukemia (intraperitoneal) in B6D2F1 (BDF1) mice
Conditions: endpoint: mean survival time, higher = longer survival
How it was run: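 Read-out is survival time, reported as the treated-group measurement over the vehicle-control measurement.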

[1] = dose: 100.0 mg/kg/injection, schedule: Q01DX009 (ip), vehicle: Klucel (hydroxypropylcellulose) (HPC)
[2] = dose: 200.0 mg/kg/injection, schedule: Q01DX009 (ip), vehicle: Klucel (hydroxypropylcellulose) (HPC)
[3] = dose: 400.0 mg/kg/injection, schedule: Q01DX009 (ip), vehicle: Klucel (hydroxypropylcellulose) (HPC)
[4] = dose: 100.0 mg/kg/injection, schedule: Q01DX009 (ip), vehicle: saline
[5] = dose: 100.0 mg/kg/injection, schedule: Q04DX003 (ip), vehicle: saline
[6] = dose: 200.0 mg/kg/injection, schedule: Q04DX003 (ip), vehicle: saline
[7] = dose: 400.0 mg/kg/injection, schedule: Q04DX003 (ip), vehicle: saline
[8] = dose: 25.0 mg/kg/injection, schedule: Q01DX009 (ip), vehicle: saline
[9] = dose: 100.0 mg/kg/injection, schedule: Q01DX001 (ip), vehicle: carboxymethylcellulose (CMC)
[10] = dose: 200.0 mg/kg/injection, schedule: Q01DX001 (ip), vehicle: carboxymethylcellulose (CMC)
[11] = dose: 50.0 mg/kg/injection, schedule: Q04DX003 (ip), vehicle: saline
[12] = dose: 100.0 mg/kg/injection, schedule: Q01DX001 (ip), vehicle: saline
[13] = dose: 400.0 mg/kg/injection, schedule: Q01DX001 (ip), vehicle: saline

Measured: T/C

O=C1CCC(c2ccccc2)=NN1c1ccccc1
inactive: [1] 96 % of control | [2] 90 % of control | [3] 96 % of control

NC1CCCCC1.[O]=[Cr](=[O])([OH])[OH]
inactive: dose: 12.5 mg/kg/injection, schedule: Q01DX009 (ip), vehicle: saline sonified 100 % of control | dose: 25.0 mg/kg/injection, schedule: Q01DX009 (ip), vehicle: saline sonified 109 % of control | dose: 50.0 mg/kg/injection, schedule: Q04DX003 (ip), vehicle: Klucel (hydroxypropylcellulose) (HPC) 102 % of control | dose: 75.0 mg/kg/injection, schedule: Q01DX001 (ip), vehicle: saline 98 % of control

C#CCN(CC#C)C(=O)Nc1ccc(Cl)cc1
inactive: dose: 25.0 mg/kg/injection, schedule: Q04DX002 (ip), vehicle: saline with Tween-80 96 % of control | dose: 50.0 mg/kg/injection, schedule: Q04DX002 (ip), vehicle: saline with Tween-80 96 % of control | dose: 100.0 mg/kg/injection, schedule: Q04DX002 (ip), vehicle: saline with Tween-80 99 % of control and 106 % of control

Cc1c[nH]c(=O)cn1
inactive: [4] 97 % of control | [5] 94 % of control | dose: 200.0 mg/kg/injection, schedule: Q01DX009 (ip), vehicle: saline 90 % of control | [6] 104 % of control | dose: 400.0 mg/kg/injection, schedule: Q01DX009 (ip), vehicle: saline 93 % of control | [7] 104 % of control

CCc1ncc(C)n1Cc1ccccc1
inactive: dose: 6.25 mg/kg/injection, schedule: Q01DX009 (ip), vehicle: saline 109 % of control | dose: 12.5 mg/kg/injection, schedule: Q01DX009 (ip), vehicle: saline 102 % of control | [8] 102 % of control and 115 % of control

O=C(O)c1ccc(NCc2cccc(NCCCc3ccccc3)c2)cc1
inactive: dose: 100.0 mg/kg/injection, schedule: Q01DX001 (ip), vehicle: saline with Tween-80 92 % of control | dose: 200.0 mg/kg/injection, schedule: Q01DX001 (ip), vehicle: saline with Tween-80 92 % of control | dose: 400.0 mg/kg/injection, schedule: Q01DX001 (ip), vehicle: saline with Tween-80 93 % of control

Cc1c(C)c(Cl)c(C)c(Cl)c1O
inactive: [1] 94 % of control | dose: 100.0 mg/kg/injection, schedule: Q04DX003 (ip), vehicle: Klucel (hydroxypropylcellulose) (HPC) 98 % of control | [2] 89 % of control | dose: 200.0 mg/kg/injection, schedule: Q04DX003 (ip), vehicle: Klucel (hydroxypropylcellulose) (HPC) 93 % of control | [3] 91 % of control | dose: 400.0 mg/kg/injection, schedule: Q04DX003 (ip), vehicle: Klucel (hydroxypropylcellulose) (HPC) 105 % of control

Cc1ccc(N(Cc2ccccc2)Cc2ccccc2)cc1
inactive: dose: 75.0 mg/kg/injection, schedule: Q01DX009 (ip), vehicle: other 103 % of control | dose: 100.0 mg/kg/injection, schedule: Q04DX002 (ip), vehicle: other 105 % of control | dose: 150.0 mg/kg/injection, schedule: Q01DX009 (ip), vehicle: other 106 % of control | dose: 200.0 mg/kg/injection, schedule: Q04DX002 (ip), vehicle: other 97 % of control | dose: 300.0 mg/kg/injection, schedule: Q01DX009 (ip), vehicle: other 98 % of control | dose: 400.0 mg/kg/injection, schedule: Q04DX002 (ip), vehicle: other 97 % of control

BrC1(c2ccccc2)C(c2ccccc2)=C1c1ccccc1
inactive: dose: 50.0 mg/kg/injection, schedule: Q01DX001 (ip), vehicle: carboxymethylcellulose (CMC) 94 % of control | [9] 94 % of control | [10] 96 % of control

c1ccc2c(c1)OCCOCCOCCOCCO2
inactive: dose: 6.25 mg/kg/injection, schedule: Q04DX002 (ip), vehicle: saline 89 % of control | dose: 12.5 mg/kg/injection, schedule: Q04DX002 (ip), vehicle: saline 103 % of control | dose: 25.0 mg/kg/injection, schedule: Q04DX002 (ip), vehicle: saline 113 % of control | dose: 50.0 mg/kg/injection, schedule: Q04DX002 (ip), vehicle: saline 94 % of control

NCCN1C(c2ccccc2)C1c1ccccc1 (stereo not given)
inactive: [11] 94 % of control | [5] 94 % of control and 105 % of control | [6] 103 % of control | [7] 100 % of control

CC(C)OC(=O)Cc1cccc2ccccc12
inactive: dose: 222.0 mg/kg/injection, schedule: Q01DX Z (ip), vehicle: saline 98 % of control | dose: 333.0 mg/kg/injection, schedule: Q01DX Z (ip), vehicle: saline 88 % of control | dose: 500.0 mg/kg/injection, schedule: Q01DX Z (ip), vehicle: saline 95 % of control

CC[n+]1ccc(-c2ccc(S(=O)(=O)[O-])cc2)o1
inactive: [11] 108 % of control | [9] 96 % of control | [12] 105 % of control | [5] 93 % of control | [10] 96 % of control | dose: 200.0 mg/kg/injection, schedule: Q01DX001 (ip), vehicle: saline 105 % of control | [6] 105 % of control | dose: 400.0 mg/kg/injection, schedule: Q01DX001 (ip), vehicle: carboxymethylcellulose (CMC) 100 % of control | [13] 105 % of control

Cc1nc2ccccc2s1
inactive: dose: 100.0 mg/kg/injection, schedule: Q04DX002 (ip), vehicle: saline 106 % of control | dose: 200.0 mg/kg/injection, schedule: Q04DX002 (ip), vehicle: saline 98 % of control | dose: 400.0 mg/kg/injection, schedule: Q04DX002 (ip), vehicle: saline 102 % of control

O/N=C1\CCn2cccc21
inactive: dose: 100.0 mg/kg/injection, schedule: Q04DX003 (ip), vehicle: saline with Tween-80 91 % of control | dose: 200.0 mg/kg/injection, schedule: Q04DX003 (ip), vehicle: saline with Tween-80 91 % of control | dose: 400.0 mg/kg/injection, schedule: Q04DX003 (ip), vehicle: saline with Tween-80 87 % of control

CCC(O)(CC)C(C)C
inactive: dose: 90.0 mg/kg/injection, schedule: Q01DX001 (ip), vehicle: saline 97 % of control | [12] 102 % of control | dose: 130.0 mg/kg/injection, schedule: Q01DX001 (ip), vehicle: saline 92 % of control | dose: 300.0 mg/kg/injection, schedule: Q01DX001 (ip), vehicle: saline 96 % of control | [13] 96 % of control

Cc1cc([N+](=O)[O-])ccc1NC(=O)OCc1ccccc1
inactive: dose: 100.0 mg/kg/injection, schedule: Q04DX002 (ip), vehicle: Klucel (hydroxypropylcellulose) (HPC) 99 % of control | dose: 200.0 mg/kg/injection, schedule: Q04DX002 (ip), vehicle: Klucel (hydroxypropylcellulose) (HPC) 101 % of control | dose: 400.0 mg/kg/injection, schedule: Q04DX002 (ip), vehicle: Klucel (hydroxypropylcellulose) (HPC) 89 % of control

C[S+](C)C
inactive: dose: 12.0 mg/kg/injection, schedule: Q01DX009 (ip), vehicle: saline 104 % of control | [8] 93 % of control and 100 % of control | dose: 25.0 mg/kg/injection, schedule: Q04DX003 (ip), vehicle: saline 93 % of control | dose: 50.0 mg/kg/injection, schedule: Q01DX009 (ip), vehicle: Klucel (hydroxypropylcellulose) (HPC) 91 % of control | dose: 50.0 mg/kg/injection, schedule: Q01DX009 (ip), vehicle: saline 100 % of control and 98 % of control | [11] 98 % of control | [12] 96 % of control | [4] 90 % of control | [5] 97 % of control and 88 % of control
